Laboratory results taken from patent publication EP0928291B1, “3-MERCAPTOACETYLAMINO-1,5-SUBSTITUTED-2-OXO-AZEPAN DERIVATIVES USEFUL AS INHIBITORS OF MATRIX METALLOPROTEINASE” (Aventis Pharmaceuticals Inc., priority 1996, dated 1998).

Legend:
Type in all cases: biochemical
MMP-3 = target: T1, MMP-3 (Homo sapiens, UniProt P08254); test: Determination of Inhibition Constant (Ki) for MMP-3, fluorogenic substrate assay; settings: activated MMP-3, substrate Mca-Pro-Leu-Gly-Leu-Dpa-Ala-Arg-NH2, 37°C, pH 7.6, [S] = 1 µM, [MMP-3] = 1 nM
T1 construct: The active MMP-3 was obtained by treatment of proMMP-3 with trypsin; endogenous in cells; host or cells: human rheumatoid synovial fibroblasts stimulated with macrophage-conditioned medium (secreted proenzyme purified from the culture medium)
T1 sequence (P08254 100-477): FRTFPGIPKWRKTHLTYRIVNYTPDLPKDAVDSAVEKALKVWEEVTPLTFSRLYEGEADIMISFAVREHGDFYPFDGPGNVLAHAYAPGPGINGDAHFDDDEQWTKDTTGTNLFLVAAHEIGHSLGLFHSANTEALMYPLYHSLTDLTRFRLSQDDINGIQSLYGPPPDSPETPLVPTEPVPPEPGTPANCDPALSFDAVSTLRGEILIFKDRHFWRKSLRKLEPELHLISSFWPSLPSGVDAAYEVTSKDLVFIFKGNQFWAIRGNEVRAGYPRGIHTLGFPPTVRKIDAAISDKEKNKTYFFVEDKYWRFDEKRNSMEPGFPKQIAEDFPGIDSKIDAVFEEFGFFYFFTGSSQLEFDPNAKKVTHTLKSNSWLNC
Experimental: ProMMP-3 (EC 3.4.24.17; Stromelysin-1) was purified from culture medium of human rheumatoid synovial fibroblasts stimulated with macrophage-conditioned medium according to Okada, Y. et al., J. Biol. Chem. 261, 14245-14255 (1986). The active MMP-3 was obtained by treatment of proMMP-3 with trypsin (5 µg/mL) at 37°C for 30 min, followed by addition of soybean trypsin inhibitor (50 µg/mL). Aliquots of the activated MMP-3 were stored at -20°C.
The activated MMP-3 is assayed using a fluorogenic substrate, Mca-Pro-Leu-Gly-Leu-Dpa-Ala-Arg-NH2, Knight, C.G. et al., FEBS Lett. 296, 263-266 (1992), at 37°C in an assay buffer containing 50 mM Tris, pH 7.6, 0.2 M NaCI, 50 mM CaCl2, and 0.02% Brij-35. The increase in fluorescence due to cleavage of Gly-Leu peptide bond by MMP-3 was monitored with Perkin-Elmer LS50B Fluorimeter (λex 328 nm, λem 393 nm, excitation slit 2.5, emission slit 10). Substrate and inhibitor stock solutions were made in DMF and 0.1% HCl-DMF, respectively. […] Under these conditions, the measured Ki, app is close to true Ki.
(§1) The Ki for a competitive inhibitor is calculated using: v0/vi = (1 + [I]/Ki, app) and Ki = Ki, app/(1 + [S]/Km), where v0 is the initial rate in the absence of inhibitor, vi is the initial rate in the presence of inhibitor at the concentration of [I], [S] is the substrate concentration, and Km is the Michaelis constant. […]

MMP-2 = target: T2, MMP-2 (Homo sapiens, UniProt P08253); test: Determination of Inhibition Constant (Ki) for MMP-2, fluorogenic substrate assay; settings: recombinant MMP-2, substrate Mca-Pro-Leu-Gly-Leu-Dpa-Ala-Arg-NH2, 37°C, pH 7.6, [S] = 1 µM, [MMP-2] = 0.4 nM
T2 construct: made in house; host or cells: Pichia pastoris (strains KM71 / SMD1168, clone 24S)
T2 sequence (P08253 110-660): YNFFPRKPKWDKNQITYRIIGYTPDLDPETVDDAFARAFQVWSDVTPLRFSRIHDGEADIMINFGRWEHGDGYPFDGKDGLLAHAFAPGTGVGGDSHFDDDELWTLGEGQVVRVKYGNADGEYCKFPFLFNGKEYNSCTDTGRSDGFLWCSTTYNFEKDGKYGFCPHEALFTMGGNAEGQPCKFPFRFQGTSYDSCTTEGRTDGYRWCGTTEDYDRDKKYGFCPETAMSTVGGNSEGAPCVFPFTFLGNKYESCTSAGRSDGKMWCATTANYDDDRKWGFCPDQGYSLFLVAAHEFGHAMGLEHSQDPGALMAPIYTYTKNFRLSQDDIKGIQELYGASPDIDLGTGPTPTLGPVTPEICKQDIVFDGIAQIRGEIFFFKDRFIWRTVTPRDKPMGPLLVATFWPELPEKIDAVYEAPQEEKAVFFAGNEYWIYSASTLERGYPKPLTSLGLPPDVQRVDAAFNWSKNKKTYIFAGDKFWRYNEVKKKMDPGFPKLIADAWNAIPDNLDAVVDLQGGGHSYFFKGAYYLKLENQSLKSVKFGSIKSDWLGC
Excerpt: Recombinant MMP-2 was purified from the fermentation broth of yeast Pichia pastoris that carries the integrated MMP-2 gene into its chromosome. In brief, the full-length cDNA for MMP-2 was obtained by reverse transcription of RNA from human melanoma A375M cell line by the reverse transcriptase polymerase chain reaction (RT-PCR) using sequence specific oligonucleotides. The nucleotide sequence was confirmed by Taq cycle sequencing. The cDNA was ligated into the Pichia pastoris expression vector pHIL-D2 in such a way that the expression of pro-MMP2 is under the control of the methano inducible alcohol oxidase promoter. The expression construct was digested with either SalI or NsiI and used to transform the Pichia pastoris strains KM71 and SMD1168. […]
The active MMP-2 was obtained by activation of proMMP-2 at 37°C for 1 h with 4-aminophenylmercuric acetate which was then removed by a Sephadex G-50 spin column. […] The increase in fluorescence is monitored (λex 328 nm, λem 393 nm). […] Under these conditions, the measured Ki, app is close to true Ki.
as §1

[1] = target: T3, MMP-12 (macrophage metalloelastase) (Homo sapiens, UniProt P39900); test: Determination of the inhibition constant (Ki) for MMP-12, fluorogenic substrate assay (cuvette or microtiter plate); settings: substrate Mca-Pro-Leu-Gly-Leu-Dpa-Ala-Arg-NH2, 25C, pH 7.6, [MMP-12] = 2 nM, cuvette or microtiter plate method
T3 construct: made in house
T3 sequence (P39900 106-263 limits assumed): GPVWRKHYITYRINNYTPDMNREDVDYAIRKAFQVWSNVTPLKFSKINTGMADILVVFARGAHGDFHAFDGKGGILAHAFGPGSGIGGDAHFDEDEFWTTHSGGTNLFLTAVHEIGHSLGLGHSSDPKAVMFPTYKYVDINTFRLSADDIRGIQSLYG
Experimental: MMP-12 (EC 3.4.24.65) was cloned, expressed and purified according to Shapiro, S.D. et al., J Biol. Chem. 268, 23824-23829 (1993). […] Aliquots of MMP-12 were stored at -70C.
The potency of inhibitors of MMP-12 was measured using either quartz cuvettes or microtiter plates. The activity of MMP-12 was measured using a fluorogenic substrate, Mca-Pro-Leu-Gly-Leu-Dpa-Ala-Arg-NH2, Knight, C.G. et al., FEBS Lett. 296,263-266 (1992), at 25C in an assay buffer containing 50 mM Tris, pH 7.6, 0.2 M NaCl, 50 mM CaCl2, and 0.02% Brij-35. The increase in fluorescence due to cleavage of Gly-Leu peptide bond by MMP-12 was monitored with a Perkin-Elmer LS50B Fluorimeter (λex 328 nm, λem 393 nm, excitation slit 2.5, emission slit 10) for the cuvette assay and with a Molecular Devices Fmax fluorescence plate reader (λex 320 nm, λem 405 nm) for the microtiter plate assay. Substrate and inhibitor stock solutions were made in N,N,dimethylformamide (DMF) and 0.1% HCI-DMF, respectively. […]
Ki values were determined using the microtiter plate method in a manner similar to that described for the cuvette method with some modifications. […] Cleavage of substrate was recorded every 30 seconds for 30 minutes and progress curves were generated. […]

SMILES	Ki (MMP-3)	Ki (MMP-2)	Ki [1]
CNC(=O)C(Cc1ccccc1)N1CCC(c2ccccc2)CC(NC(=O)C(S)CCCCN2C(=O)c3ccccc3C2=O)C1=O (stereo not drawn) [Compound II-1, 2H-Isoindole-2-hexanamide, N-[hexahydro-1-[2-(methylamino)-2-oxo-1-(phenylmethyl)ethyl]-2-oxo-5-phenyl-1H-azepin-3-yl]-1,3-dihydro-α-mercapto-1,3-dioxo-, [3S-(1(R*), 3α, 5α]]-]	0.039 µM	0.0012 µM	0.018 µM
CNC(=O)C(Cc1ccccc1)N1CCC(c2ccccc2)CC(NC(=O)C(S)CCCCN2C(=O)c3ccccc3C2=O)C1=O (stereo not drawn) [Compound III-1, 2H-Isoindole-2-hexanamide, N-[hexahydro-1-[2-(methylamino)-2-oxo-1-(phenylmethyl)ethyl]-2-oxo-5-phenyl-1H-azepin-3-yl]-1,3-dihydro-α-mercapto-1,3-dioxo-, [3S-[1(R*), 3α, 5β]]-]	0.073 µM	–	0.053 µM
